From US7423054B2, “Therapeutic pyrazolo[3,4-b]pyridines and indazoles” (Warner Lambert Company LLC, priority 2004, dated 2008)
Structures can show the parent of a compound that is named as a salt.

Tests used:
[1] = molecular target: T1, human norepinephrine transporter (hNET) (Homo sapiens, UniProt P23975); assay: hNET receptor binding ([125I]-RTI-55 displacement, membranes of transfected HEK-293 cells); conditions: HEK-293 membranes, Ki from IC50 by Cheng-Prusoff, read-out: NET Ki
T1 construct: expressed in transfected cells; host or cells: HEK-293 cells (membrane preparation)
T1 sequence (P23975 whole entry): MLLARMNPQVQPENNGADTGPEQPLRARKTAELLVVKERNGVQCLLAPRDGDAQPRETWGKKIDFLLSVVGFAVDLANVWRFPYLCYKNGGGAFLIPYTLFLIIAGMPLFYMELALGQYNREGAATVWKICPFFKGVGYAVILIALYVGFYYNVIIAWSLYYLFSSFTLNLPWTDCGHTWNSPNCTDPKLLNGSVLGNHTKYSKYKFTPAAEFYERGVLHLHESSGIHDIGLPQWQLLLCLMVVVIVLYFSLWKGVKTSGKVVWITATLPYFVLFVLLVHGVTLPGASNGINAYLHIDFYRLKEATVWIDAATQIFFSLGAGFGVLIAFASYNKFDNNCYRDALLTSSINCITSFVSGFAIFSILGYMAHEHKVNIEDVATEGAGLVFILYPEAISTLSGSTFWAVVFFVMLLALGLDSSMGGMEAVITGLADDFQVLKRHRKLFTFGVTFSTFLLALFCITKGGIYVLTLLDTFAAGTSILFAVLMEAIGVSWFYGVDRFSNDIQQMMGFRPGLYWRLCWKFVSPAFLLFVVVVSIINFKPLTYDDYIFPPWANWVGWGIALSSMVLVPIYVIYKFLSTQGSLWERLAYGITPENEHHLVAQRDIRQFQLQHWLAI
Description: (§1) The ability of the compounds of the present invention to inhibit a norepinephrine transporter and/or a serotonin transporter can be determined using conventional radioligand receptor transport assays. The receptors can be heterologously expressed in cell lines and experiments conducted in membrane preparations from the cell lines that express a norepinephrine transporter and/or a serotonin transporter.
(§2) Cell pastes of HEK-293 cells transfected with a human norepinephrine transporter cDNA were prepared. The cell pastes were resuspended in 400 to 700 ml of Krebs-HEPES assay buffer (25 mM HEPES, 122 mM NaCl, 3 mM KCl, 1.2 mM MgSO4, 1.3 mM CaCl2, and 11 mM glucose, pH 7.4) with a Polytron homogenizer at setting 7 for 30 seconds. Aliquots of membranes (5 mg/ml protein) were stored in liquid nitrogen until used.
The binding assay was set up in Beckman deep-well polypropylene plates with a total volume of 250 μl containing: test compound (10^−5M to 10^−12M), cell membranes, and 50 pM [^125I]-RTI-55 (Perkin Elmer, NEX-272; specific activity 2200 Ci/mmol). The reaction was incubated by gentle agitation for 90 minutes at room temperature and was terminated by filtration through Whatman GF/C filter plates using a Brandel 96-well plate harvester. Scintillation fluid (100 μl) was added to each well, and bound [^125I]-RTI-55 was determined using a Wallac Trilux Beta Plate Counter. Test compounds were run in duplicate, and specific binding was defined as the difference between binding in the presence and absence of 10 μM desipramine.
Excel and GraphPad Prism software were used for data calculation and analysis. IC50 values were converted to Ki values using the Cheng-Prusoff equation. The Ki values (nM) for the hNET are reported below in Table 11.

[2] = molecular target: T2, human serotonin transporter (hSERT) (Homo sapiens, UniProt P31645); assay: hSERT receptor binding ([125I]-RTI-55 displacement, membranes of transfected HEK-293 cells); conditions: HEK-293 membranes, Ki from IC50 by Cheng-Prusoff, read-out: SERT Ki
T2 construct: expressed in transfected cells; host or cells: HEK-293 cells (membrane preparation)
T2 sequence (P31645 whole entry): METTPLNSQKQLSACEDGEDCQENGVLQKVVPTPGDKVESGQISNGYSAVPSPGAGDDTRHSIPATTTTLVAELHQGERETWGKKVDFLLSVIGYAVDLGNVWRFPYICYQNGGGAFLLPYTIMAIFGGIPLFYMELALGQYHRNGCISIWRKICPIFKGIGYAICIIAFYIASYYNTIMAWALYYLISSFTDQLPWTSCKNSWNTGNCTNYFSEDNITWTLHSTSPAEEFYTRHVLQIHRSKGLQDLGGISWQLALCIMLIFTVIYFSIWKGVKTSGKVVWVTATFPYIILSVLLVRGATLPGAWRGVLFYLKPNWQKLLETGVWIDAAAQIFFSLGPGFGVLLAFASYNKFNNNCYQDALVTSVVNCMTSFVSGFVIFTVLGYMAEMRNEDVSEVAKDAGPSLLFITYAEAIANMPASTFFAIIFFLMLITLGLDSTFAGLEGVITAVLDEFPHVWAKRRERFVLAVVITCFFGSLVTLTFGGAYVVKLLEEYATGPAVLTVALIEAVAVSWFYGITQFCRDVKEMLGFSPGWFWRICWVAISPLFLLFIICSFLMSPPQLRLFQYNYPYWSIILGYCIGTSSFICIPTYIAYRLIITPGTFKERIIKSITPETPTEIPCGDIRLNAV
Protocol: as §1
as §2, with “serotonin” for “norepinephrine”, “Setting” for “setting”, “(˜2.5” for “(5”
Assays were set up in FlashPlates pre-coated with 0.1% PEI in a total volume of 250 μl containing: test compound (10^−5M to 10^−12M), cell membranes, and 50 pM [^125I]-RTI-55 (Perkin Elmer, NEX-272; specific activity 2200 Ci/mmol). The reaction was incubated and gently agitated for 90 minutes at room temperature, and terminated by removal of assay volume. Plates were covered, and bound [^125I]-RTI-55 was determined using a Wallac Trilux Beta Plate Counter. Test compounds were run in duplicate, and specific binding was defined as the difference between binding in the presence and absence of 10 μM citalopram.
Excel and GraphPad Prism software were used for data calculation and analysis. IC50 values were converted to Ki values using the Cheng-Prusoff equation. The Ki values (nM) for the hSERT are reported below in Table 11: […]

| Compound | Ki [1] | Ki [2] |
| --- | --- | --- |
| Fc1ccc(F)c(-n2nc(OC[C@H]3CCCNC3)c3ccccc32)c1 [Example 38, (S)-1-(2,5-Difluoro-phenyl)-3-(piperidin-3-ylmethoxy)-1H-indazole hydrochloride] | 0.00609 µM | 0.199 µM |
| Fc1ccc(F)c(-n2nc(OC3CCNCC3)c3cc(F)ccc32)c1 [Example 39, 1-(2,5-Difluoro-phenyl)-5-fluoro-3-(piperidin-4-yloxy)-1H-indazole hydrochloride] | 0.00957 µM | 0.0344 µM |
| Fc1ccc(F)c(-n2nc(OC[C@@H]3CCNC3)c3cc(F)ccc32)c1 [Example 40, (R)-1-(2,5-Difluoro-phenyl)-5-fluoro-3-(pyrrolidin-3-ylmethoxy)-1H-indazole hydrochloride] | 0.00502 µM | 0.0307 µM |
| Clc1ccc(-n2nc(OC3CCNCC3)c3ccccc32)cc1 [Example 41, 1-(4-Chloro-phenyl)-3-(piperidin-4-yloxy)-1H-indazole hydrochloride] | 0.299 µM | 0.0797 µM |
| c1ccc(-n2nc(OC[C@H]3CCCNC3)c3ccccc32)nc1 [Example 44, (S)-(−)-3-(Piperidin-3-ylmethoxy)-1-pyridin-2-yl-1H-indazole maleate] | 0.1 µM | 0.365 µM |
| Fc1ccc2c(c1)c(OC[C@@H]1CNCCO1)nn2-c1ccccc1F [Example 46, (S)-(+)-5-Fluoro-1-(2-fluorophenyl)-3-(morpholin-2-ylmethoxy)-1H-indazole maleate] | 0.0057 µM | 0.413 µM |
| Fc1ccc(-n2nc(OC[C@H]3CCCNC3)c3cc(F)ccc32)c(F)c1 [Example 49, (S)-(−)-1-(2,4-Difluorophenyl)-5-fluoro-3-(piperidin-3-ylmethoxy)-1H-indazole hydrochloride] | 0.0985 µM | 0.0205 µM |
| Fc1ccc2c(c1)c(OC[C@@H]1CNCCO1)nn2-c1c(F)cccc1F [Example 50, (S)-1-(2,6-Difluoro-phenyl)-5-fluoro-3-(morpholin-2-ylmethoxy)-1H-indazole hydrochloride] | 0.0052 µM | 1.14 µM |
| CC1(COc2nn(-c3ccccc3F)c3ccc(F)cc23)CCCNC1 (stereo not shown) [Example 52] | 0.0357 µM | 0.0454 µM |
| CC1(COc2nn(-c3ccccc3F)c3ccccc23)CCCNC1 (stereo not shown) [Example 53, 1-(2-Fluoro-phenyl)-3-(3-methyl-piperidin-3-ylmethoxy)-1H-indazole hydrogen chloride] | 0.0541 µM | 0.146 µM |
| CC1(COc2nn(-c3ccccc3F)c3ccc(F)cc23)CCNCC1 [Example 54, 5-Fluoro-1-(2-fluoro-phenyl)-3-(4-methyl-piperdin-4-ylmethoxy)-1H-indazole hydrogen chloride] | 0.274 µM | 0.0285 µM |
| Fc1ccc2c(c1)c(OC[C@@H]1CCCNC1)nn2-c1ccccc1F [Example 55, (R)-5-Fluoro-1-(2-fluoro-phenyl)-3-(piperidin-3-ylmethoxy)-1H-indazole maleate] | 0.0712 µM | 0.126 µM |
| Fc1ccc(F)c(-n2nc(OC3CCNCC3)c3cc(Cl)ccc32)c1 [Example 58, 5-Chloro-1-(2,5-difluoro-phenyl)-3-(piperidin-4-yloxy)-1H-indazole hydrochloride] | 0.056 µM | 0.134 µM |
| Cc1cccc2c(OC3CCNCC3)nn(-c3ccccc3)c12 [Example 59, 7-Methyl-1-phenyl-3-(piperidin-4-yloxy)-1H-indazole hydrochloride] | 0.0691 µM | 0.0327 µM |
| COc1cccc2c(OC3CCNCC3)nn(-c3ccccc3)c12 [Example 60, 7-Methoxy-1-phenyl-3-(piperidin-4-yloxy)-1H-indazole hydrochloride] | 0.221 µM | 0.0767 µM |
| Clc1cccc2c(OC3CCNCC3)nn(-c3ccccc3)c12 [Example 61, 7-Chloro-1-phenyl-3-(piperidin-4-yloxy)-1H-indazole hydrochloride] | 0.0204 µM | 0.0217 µM |

| Compound | Ki [1] | Ki [2] |
| --- | --- | --- |
| Cc1cccc2c1c(OC1CCNCC1)nn2-c1ccccc1 [Example 62, 4-Methyl-1-phenyl-3-(piperidin-4-yloxy)-1H-indazole hydrochloride] | 0.495 µM | 0.314 µM |
| Fc1ccc2c(OC3CCNCC3)nn(-c3ccccc3F)c2c1 [Example 63, 6-Fluoro-1-(2-fluoro-phenyl)-3-(piperidin-4-yloxy)-1H-indazole hydrochloride] | 0.0395 µM | 0.0194 µM |
| Clc1ccc2c(OC3CCNCC3)nn(-c3ccccc3)c2c1 [Example 64, 6-Chloro-1-phenyl-3-(piperidin-4-yloxy)-1H-indazole hydrochloride] | 0.512 µM | 0.272 µM |
| Fc1ccccc1-n1nc(OC2CCNCC2)c2cccc(C(F)(F)F)c21 [Example 65, 1-(2-fluorophenyl)-3-(piperidin-4-yloxy)-7-(trifluoromethyl)-1H-indazole hydrochloride] | 4.33 µM | 0.0812 µM |
| Cc1ccc2c(OC3CCNCC3)nn(-c3ccccc3)c2c1 [Example 71, 6-Methyl-1-phenyl-3-(piperidin-4-yloxy)-1H-indazole hydrochloride] | 0.0955 µM | 0.0205 µM |
| Cc1ccc2c(OC3CCNCC3)nn(-c3ccccc3F)c2c1 [Example 72, 1-(2-Fluoro-phenyl)-6-methyl-3-(piperidin-4-yloxy)-1H-indazole hydrochloride] | 0.0274 µM | 0.00976 µM |
| Fc1ccccc1-n1nc(OCC2CCCNC2)c2cc(Cl)ccc21 (stereo not shown) [Example 73, 5-Chloro-1-(2-fluoro-phenyl)-3-(piperidin-3-ylmethoxy)-1H-indazole hydrochloride] | 0.0293 µM | 0.304 µM |
| Cc1ccc2c(OCC3CCCNC3)nn(-c3ccccc3F)c2c1 (stereo not shown) [Example 74, 1-(2-Fluoro-phenyl)-6-methyl-3-(piperidin-3-ylmethoxy)-1H-indazole hydrochloride] | 0.0605 µM | 0.792 µM |
| Fc1cc2c(OC3CCNCC3)nn(-c3ccccc3F)c2cc1F [Example 75, 5,6-Difluoro-1-(2-fluoro-phenyl)-3-(piperidin-4-yloxy)-1H-indazole hydrochloride] | 0.0364 µM | 0.0398 µM |
| Fc1cc2c(OCC3CCCNC3)nn(-c3ccccc3F)c2cc1F (stereo not shown) [Example 76, 5,6-Difluoro-1-(2-fluoro-phenyl)-3-(piperidin-3-ylmethoxy)-1H-indazole hydrochloride] | 0.0404 µM | 0.158 µM |
| Fc1cccc(-n2nc(OC3CCNCC3)c3cc(F)ccc32)c1 [Example 77, 5-Fluoro-1-(3-fluoro-phenyl)-3-(piperidin-4-yloxy)-1H-indazole hydrochloride] | 0.0248 µM | 0.0495 µM |
| Fc1cccc(-n2nc(OC[C@H]3CCCNC3)c3cc(F)ccc32)c1 [Example 78, (S)-5-Fluoro-1-(3-fluoro-phenyl)-3-(piperidin-3-ylmethoxy)-1H-indazole hydrochloride] | 0.0102 µM | 0.0399 µM |
| Fc1ccc(-n2nc(OC3CCNCC3)c3cc(F)ccc32)cc1 [Example 79, 5-Fluoro-1-(4-fluoro-phenyl)-3-(piperidin-4-yloxy)-1H-indazole hydrochloride] | 0.0328 µM | 0.0237 µM |
| Fc1ccc(-n2nc(OC[C@H]3CCCNC3)c3cc(F)ccc32)cc1 [Example 80, (S)-5-Fluoro-1-(4-fluoro-phenyl)-3-(piperidin-3-ylmethoxy)-1H-indazole hydrochloride] | 0.015 µM | 0.0239 µM |
| Fc1cccc(-n2nc(OC3CCNCC3)c3c(F)cccc32)c1 [Example 81, 4-Fluoro-1(3-fluoro-phenyl)-3-(piperidin-4-yloxy)-1H-indazole hydrochloride] | 0.0498 µM | 0.449 µM |
| Fc1cccc(-n2nc(OC[C@H]3CCCNC3)c3c(F)cccc32)c1 [Example 82, (S)-4-Fluoro-1-(3-fluoro-phenyl)-3-(piperidin-3-ylmethoxy)-1H-indazole hydrochloride] | 0.0232 µM | 0.635 µM |
